US9462803B2, “Organ preservation and/or perfusion” (Philadelphia College of Osteopathic Medicine, priority 2005, dated 2016)
Entries after “also recorded” stand apart in the source; their conditions may differ. Where no end group is shown, it is not given here.

Experiments:
[1] = tested on: isolated perfused rat hearts; assay: Isolated perfused rat heart ischemia/reperfusion (I/R) cardiac function, with or without PMNs; settings: for cardioprotection: I/R+PMN
Procedure: Male Sprague Dawley rats (275-325 g, Ace Animals, Boyertown, Pa.) were anesthetized with 60 mg/kg pentobarbital sodium intraperitoneally (i.p.). Sodium heparin (1,000 U) was also administered i.p. The hearts were rapidly excised, the ascending aortas were cannulated, and retrograde perfusion of the heart was initiated with a modified Krebs buffer maintained at 37° C. at a constant pressure of 80 mmHg. The Krebs buffer had the following composition (in mmol/l): 17 dextrose, 120 NaCl, 25 NaHCO3, 2.5 CaCl2, 0.5 EDTA, 5.9 KCl, and 1.2 MgCl2. The perfusate was aerated with 95% O2 and 5% CO2 and equilibrated at a pH of 7.3-7.4. The two side arms in the perfusion line proximal to the heart inflow cannula allowed PMNs, plasma without PKC ε peptide inhibitor (control hearts) or plasma containing different concentrations of PKC ε peptide inhibitor (1 or 5 μM) to be directly infused into the coronary inflow line. Coronary flow was monitored by a flow meter (T106, Transonic System, Inc., Ithaca, N.Y.). LVDP and +dP/dtmax were monitored using a pressure transducer (SPR-524, Millar Instruments, Inc., Houston, Tex.), which was positioned in the left ventricular cavity. Hearts were immersed in a water-jacketed reservoir containing 160 mL of Krebs buffer maintained at 37° C. Coronary flow, LVDP and +dP/dtmax were recorded using a Powerlab Station acquisition system (ADInstruments, Grand Junction, Colo.) in conjunction with a computer.
LVDP, +dP/dtmax, and coronary flow were measured every 5 min for 15 min to equilibrate the hearts and obtain a baseline measurement. LVDP was defined as left ventricular end-systolic pressure minus left ventricular end-diastolic pressure. After 15 min, the flow of the Krebs buffer was reduced to zero for 20 min to induce global ischemia. At reperfusion, hearts were infused for 5 min with 200×10^6 PMN resuspended in 5 mL of Krebs buffer plus 5 mL of plasma at a rate of 1 mL/min. In some experiments, PKC ε peptide inhibitor (Genemed Synthesis, Inc., San Francisco, Calif.) was added to plasma at a final concentration of 1 or 5 μM. Sham I/R hearts were not subjected to ischemia and were not perfused with PMNs.
The following groups of isolated perfused rat hearts were used:
Group 1: Sham I/R hearts were not subjected to ischemia and were not perfused with PMNs, but were perfused with 5 mL of plasma (1 mL/min) at 35 minutes into perfusion (the same time point that I/R hearts would be given 5 mL of plasma, 15 minutes of baseline recordings plus 20 minutes ischemia). These hearts represented a control group to determine if the isolated rat heart can maintain LVDP and +dP/dtmax throughout the 80-minute protocol (n=6).
Group 2: Sham I/R+PKC ε peptide inhibitor (5 μM) hearts were not subjected to ischemia and not perfused with PMNs. These hearts were administered the PKC ε peptide inhibitor (5 μM, dissolved in plasma from a 5 mM stock in H2O) 35 minutes into perfusion. This group was employed to determine if the PKC ε peptide inhibitor causes a cardiotonic or cardiodepressant effect (n=6).
Group 3: I/R hearts were subjected to 20 min of ischemia and perfused with 5 mL of plasma (1 mL/min) during the first 5 min of reperfusion, but were not perfused with PMNs. These hearts represented a control group to determine if 20 min of ischemia followed by reperfusion stunned the heart, but LVDP and +dP/dtmax will recover to baseline values (initial) by the end of the 45-minute reperfusion period (n=7).
Group 4: I/R+PKC ε peptide inhibitor (5 μM, dissolved in plasma) hearts were subjected to 20 min of ischemia and not perfused with PMNs. These hearts were perfused with 5 mL of plasma+PKC ε peptide inhibitor during the first 5 min of reperfusion. This group was employed to determine if the PKC ε peptide inhibitor causes a cardiodepressant effect in the setting of I/R without PMNs (n=6). […]

rat aortic endothelium = assay: NO release from rat aortic endothelium; settings: basal 2.12±0.39
Procedure: FIG. 7 is a graph showing NO release from rat aortic endothelium in untreated (basal) segments compared to PKC ε peptide inhibitor treated segments (1, 5, and 10 μM).
FIG. 7 illustrates the NO release from rat aortic endothelium in untreated (basal) segments compared to PKC ε peptide inhibitor treated segments (1-10 μM). Acetylcholine (Ach) (10 μM) was used as a positive control. […] Although augmenting endothelial derived NO is usually associated with cardioprotection following I/R, it is speculated that the enzyme responsible for endothelial NO release (eNOS) may shift its product profile to the production of superoxide release when the substrate (L-arginine) or co-factor (BH4) is not readily available during early reperfusion.

[2] = I/R hearts without PMNs + inhibitor 5 μM
[3] = Sham I/R hearts (no ischemia, no PMNs) + inhibitor 5 μM, end of 80 min perfusion

PKC ε peptide inhibitor: Peptide inhibitor of PKC ε (Genemed Synthesis); preferred sequence EAVSLKPT (SEQ ID NO: 1), preferably myristoylated at the N-terminus (not fully specified (N-terminus); listed as Homo sapiens)
change in +dP/dtmax, initial vs final [1, 2]: no significant difference
change in LVDP, initial vs final [1, 2]: no significant difference
final LVEDP ([1]; I/R+PMN+inhibitor (5 μM), end of 45 min reperfusion, p<0.01 vs I/R+PMN): 16±2 mmHg
cardioprotection ([1]; 1 μM dose): not cardioprotective
cardioprotection ([1]; 5 μM dose): most cardioprotective
change in +dP/dtmax, initial vs final [1, 3]: did not show any significant change; also recorded: no significant difference
change in LVDP, initial vs final [1, 3]: did not show any significant change; also recorded: no significant difference
direct effect on cardiac contractile function ([1]; Sham I/R hearts, 5 μM): no direct effect
NO release (rat aortic endothelium; 5 μM, p<0.05): 0.66±0.28 pmoles/mg tissue
NO release (rat aortic endothelium; 10 μM): 0.26±0.42 pmoles/mg tissue
